Laboratory results as given in the supplement of paper PMC10307832.

How the values were obtained:
Test in all cases: relative viability (nuclei count vs DMSO), 5 days (fraction); higher = more cells survive
Adavosertib + Olaparib = compound: C=CCn1c(=O)c2cnc(Nc3ccc(N4CCN(C)CC4)cc3)nc2n1-c1cccc(C(C)(C)O)n1 [Adavosertib] + O=C(c1cc(Cc2n[nH]c(=O)c3ccccc23)ccc1F)N1CCN(C(=O)C2CC2)CC1 [Olaparib] (partner 8 µM)
Method in brief: (§1)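 Each reported value is a median over duplicate plates. It expresses relative viability: treated-well nuclei count divided by vehicle-well nuclei count. Lung cancer cell lines in 1536-well plates were dosed by pin tool a day after seeding, alone with one drug or with a fixed anchor-drug dose plus five library-drug doses (not always all listed) in √10 steps, and nuclei were counted after 5 days.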

Nelarabine + Vorinostat = compound: COc1nc(N)nc2c1ncn2[C@@H]1O[C@H](CO)[C@@H](O)[C@@H]1O [Nelarabine] + O=C(CCCCCCC(=O)Nc1ccccc1)NO [Vorinostat] (partner 1 µM)
Method in brief: as §1

Adavosertib + Pemetrexed = compound: C=CCn1c(=O)c2cnc(Nc3ccc(N4CCN(C)CC4)cc3)nc2n1-c1cccc(C(C)(C)O)n1 [Adavosertib] + Nc1nc2[nH]cc(CCc3ccc(C(=O)N[C@@H](CCC(=O)O)C(=O)O)cc3)c2c(=O)[nH]1 [Pemetrexed] (partner 0.2 µM)
Method in brief: as §1

Nelarabine + Pictilisib = compound: COc1nc(N)nc2c1ncn2[C@@H]1O[C@H](CO)[C@@H](O)[C@@H]1O [Nelarabine] + CS(=O)(=O)N1CCN(Cc2cc3nc(-c4cccc5[nH]ncc45)nc(N4CCOCC4)c3s2)CC1 [Pictilisib] (partner 1 µM)
Method in brief: as §1

Row | Cell Line | relative viability (Adavosertib + Olaparib; first compound 0.01 µM) | relative viability (Adavosertib + Olaparib; first compound 0.03162 µM) | relative viability (Adavosertib + Olaparib; first compound 0.1 µM) | relative viability (Adavosertib + Olaparib; first compound 0.3162 µM) | relative viability (Nelarabine + Vorinostat; first compound 0.01 µM) | relative viability (Nelarabine + Vorinostat; first compound 0.03162 µM) | relative viability (Nelarabine + Vorinostat; first compound 0.1 µM) | relative viability (Nelarabine + Vorinostat; first compound 0.3162 µM) | relative viability (Nelarabine + Vorinostat; first compound 1 µM) | relative viability (Adavosertib + Pemetrexed; first compound 0.01 µM) | relative viability (Adavosertib + Pemetrexed; first compound 0.03162 µM) | relative viability (Adavosertib + Pemetrexed; first compound 0.1 µM) | relative viability (Adavosertib + Pemetrexed; first compound 0.3162 µM) | relative viability (Nelarabine + Pictilisib; first compound 0.01 µM) | relative viability (Nelarabine + Pictilisib; first compound 0.03162 µM) | relative viability (Nelarabine + Pictilisib; first compound 0.1 µM) | relative viability (Nelarabine + Pictilisib; first compound 0.3162 µM) | relative viability (Nelarabine + Pictilisib; first compound 1 µM)
1 | NCI-H520 | 0.345 | 0.332 | 0.308 | 0.332 | 0.905 | 0.757 | 0.676 | 0.746 | 0.828 | 0.762 | 0.686 | 0.616 | 0.297 | 0.387 | 0.256 | 0.345 | 0.322 | 0.314
2 | HCC-44 | 1 | 0.943 | 1.02 | 1.02 | 1.11 | 1.02 | 1.05 | 1.01 | 1.07 | 0.677 | 0.602 | 0.574 | 0.433 | 0.708 | 0.829 | 0.569 | 0.597 | 0.529
3 | NCI-H2087 | 0.663 | 0.595 | 0.606 | 0.604 | 0.674 | 0.551 | 1.07 | 0.874 | 0.898 | 0.644 | 0.634 | 0.67 | 0.644 | 0.961 | 0.975 | 0.99 | 1.22 | 1.02
4 | CAL-12T | 0.722 | 0.723 | 0.863 | 0.475 | 0.987 | 0.78 | 0.764 | 0.938 | 0.997 | 1.15 | 1.25 | 1.02 | 0.682 | 0.393 | 0.642 | 0.365 | 0.494 | 0.423
5 | NCI-H1355 | 0.736 | 0.698 | 0.757 | 0.685 | 0.665 | 0.673 | 0.544 | 0.679 | 0.705 | 0.984 | 1.03 | 0.965 | 0.808 | 0.484 | 0.366 | 0.335 | 0.465 | 0.478
6 | HARA | 0.464 | 0.535 | 0.766 | 0.187 | 0.658 | 0.543 | 0.532 | 0.581 | 0.544 | 0.244 | 0.22 | 0.229 | 0.191 | 0.457 | 0.346 | 0.336 | 0.452 | 0.354
7 | NCI-H2085 | 0.831 | 0.753 | 0.829 | 0.759 | 0.788 | 0.814 | 0.77 | 0.819 | 0.816 | 0.881 | 0.86 | 0.901 | 0.998 | 0.462 | 0.372 | 0.536 | 0.46 | 0.455
8 | IA-LM | 0.809 | 0.82 | 0.872 | 0.775 | 1.11 | 1 | 0.854 | 1.11 | 0.884 | – | – | – | – | 0.369 | 0.343 | 0.22 | 0.259 | 0.328
9 | LCLC-103H | 0.797 | 0.769 | 0.761 | 0.742 | 0.905 | 0.76 | 0.795 | 0.856 | 0.808 | 0.445 | 0.462 | 0.427 | 0.449 | 0.756 | 0.811 | 0.62 | 0.671 | 0.652
10 | NCI-H2405 | – | 0.865 | 0.907 | 0.898 | 1.2 | 0.988 | 1.05 | 1.03 | 0.886 | – | 1.1 | 0.899 | 1.05 | 0.532 | 0.464 | 0.382 | 0.49 | 0.492
11 | NCI-H1666 | 0.774 | 0.754 | 0.745 | 0.738 | 1.03 | 1.03 | 1.18 | 1.09 | 0.964 | 0.808 | 0.925 | 0.82 | 0.695 | 0.524 | 0.419 | 0.371 | 0.409 | 0.551
12 | Calu-6 | 0.629 | 0.552 | 0.523 | 0.216 | – | – | – | – | – | – | – | – | – | 1.15 | 0.856 | 0.977 | 0.891 | 0.962
13 | BEN | 1.07 | 1.01 | 1.12 | 1.05 | 0.662 | 0.575 | 0.592 | 0.609 | 0.618 | 0.739 | 0.76 | 0.816 | 0.815 | 0.67 | 0.596 | 0.605 | 0.607 | 0.641
14 | 201T | 0.887 | 0.882 | 0.868 | 0.818 | 1.2 | 1.04 | 0.999 | 1.03 | 0.979 | 0.319 | 0.343 | 0.325 | 0.281 | 0.792 | 0.556 | 0.718 | 0.714 | 0.705
15 | NCI-H322M | 0.771 | 0.801 | 0.699 | 0.425 | 0.942 | 0.856 | 0.954 | 0.943 | 0.802 | 0.593 | 0.625 | 0.52 | 0.469 | 0.505 | 0.523 | 0.433 | 0.568 | 0.542
16 | NCI-H1792 | 0.464 | 0.461 | 0.378 | 0.459 | – | – | – | – | – | 0.858 | 0.756 | 0.718 | 0.71 | 0.348 | – | 0.323 | 0.326 | 0.323
17 | NCI-H358 | 0.563 | 0.517 | 0.416 | 0.329 | 0.852 | 1.02 | 0.663 | 0.791 | 0.617 | 0.227 | 0.189 | 0.166 | 0.157 | 0.374 | 0.3 | 0.294 | 0.362 | 0.328
18 | NCI-H2347 | 0.584 | 0.595 | 0.548 | 0.54 | 0.584 | 0.69 | 0.569 | 0.61 | 0.455 | 0.463 | 0.422 | 0.437 | 0.439 | 0.555 | 0.303 | 0.766 | 0.726 | 0.606
19 | NCI-H1793 | 0.739 | 0.794 | 0.746 | 0.529 | 1.05 | – | 0.885 | 0.987 | 0.784 | 0.808 | 0.913 | 0.756 | 0.782 | 0.367 | 0.35 | 0.293 | 0.314 | 0.256
